Experimental data reported in patent US20240197702A1, “ANTISEPTIC-ANTIBIOTIC GUMBOS EFFECTIVE AGAINST GRAM-NEGATIVE PATHOGENS” (priority 2020, published 2024).
Values after ≈ are worked out from the molar mass of the structure shown. Where two headings read alike, the source gives them in different places.

Experiments:
[1] = system: N. gonorrhoeae ATCC 49226; assay: MIC by micro-broth dilution against N. gonorrhoeae ATCC 49226; format: cell-based, Neisseria gonorrhoeae; conditions: for MIC: ATCC 49226, micro-broth dilution, 20-24 hours
Experimental: (§1) Minimum Inhibitory Concentrations of GUMBOS against N. gonorrhoeae: Clinical isolates of N. gonorrhoeae and N. gonorrhoeae ATCC 49226 were obtained from Louisiana State University Health Sciences Center New Orleans HIV Outpatient Clinic. Minimum inhibitory concentrations (MICs) of GUMBOS, constituent parent drugs, azithromycin, and unreacted mixtures were determined using micro-broth dilution in 96-well plates. […] Stock solutions were diluted to a known working concentration and 100 μL were added to the first row of the plate. For susceptibility testing of N. gonorrhoeae, media was prepared according to methods reported by Wade and […]. Euro. Microbiol. Soc. Microbiol. […] This liquid medium allowed dense growth of N. gonorrhoeae for use in broth dilution tests. Protein-free liquid media (100 μL) were added to each well and two-fold dilutions were performed. The antibiotic containing wells were inoculated with an equal volume of bacterial inoculum matching a 0.5 McFarland standard. […] The lowest concentration of antibiotic that prevents growth is the MIC.

[2] = system: clinical isolates of N. gonorrhoeae; assay: MIC by micro-broth dilution against N. gonorrhoeae clinical isolates; format: cell-based, Neisseria gonorrhoeae; conditions: for MIC: four clinical isolates, micro-broth dilution, 20-24 hours
Experimental: as §1

[3] = system: Carbapenem-resistant clinical isolates of Escherichia coli; assay: MIC by micro-broth dilution against carbapenem-resistant E. coli; format: cell-based; conditions: MH broth
Experimental: (§2) Minimum Inhibitory Concentrations of GUMBOS against N. gonorrhoeae: Clinical isolates of N. gonorrhoeae and N. gonorrhoeae ATCC 49226 were obtained from Louisiana State University Health Sciences Center New Orleans HIV Outpatient Clinic. Minimum inhibitory concentrations (MICs) of GUMBOS, constituent parent drugs, azithromycin, and unreacted mixtures were determined using micro-broth dilution in 96-well plates. Stock solutions of 1 mM were prepared in deionized water (1% DMSO). Stock solutions were diluted to a known working concentration and 100 μL were added to the first row of the plate. For susceptibility testing of N. gonorrhoeae, media was prepared according to methods reported by Wade and Graver (Fed. Euro. Microbiol. Soc. Microbiol. Letts (2007), 273 (1), 35-37). This liquid medium allowed dense growth of N. gonorrhoeae for use in broth dilution tests. Protein-free liquid media (100 μL) were added to each well and two-fold dilutions were performed. The antibiotic containing wells were inoculated with an equal volume of bacterial inoculum matching a 0.5 McFarland standard. Microtiter plates were incubated for 20-24 hours at 37° C. with 5% CO2 and examined for visible signs of bacterial growth as evidenced by turbidity. The lowest concentration of antibiotic that prevents growth is the MIC.
(§3) Minimum Inhibitory Concentrations of GUMBOS against Carbapenem-resistant Enterobacteriaceae: GUMBOS, ceftriaxone, and azithromycin were tested against extended spectrum beta-lactamase (ESBL)-producing gram negative bacteria. Carbapenem-resistant clinical isolates of Escherichia coli, Enterobacter cloacae, and Klebsiella pneumoniae were obtained from Louisiana State University (LSU) Health Sciences Center New Orleans HIV Outpatient Clinic. Minimum inhibitory concentrations were determined as described above using micro-broth dilutions with two minor adjustments, cation-adjusted Mueller Hinton (MH) broth was used instead and stock solutions of test compounds were prepared directly in MH broth.

[4] = system: Carbapenem-resistant clinical isolate of Klebsiella pneumoniae; assay: MIC by micro-broth dilution against carbapenem-resistant K. pneumoniae; format: cell-based; conditions: CRE K. pneumoniae, MH broth
Experimental: as §2, §3

[5] = system: Carbapenem-resistant clinical isolate of Enterobacter cloacae; assay: MIC by micro-broth dilution against carbapenem-resistant E. cloacae; format: cell-based; conditions: CRE E. cloacae, MH broth
Experimental: as §2, §3

[6] = system: N. gonorrhoeae ATCC 49226; assay: Kirby-Bauer disc diffusion against N. gonorrhoeae ATCC 49226; format: cell-based, Neisseria gonorrhoeae; conditions: for Zone size, mm (±SD): ATCC 49226, disc diffusion, 20-24 h; for Zone sizes against CLSI susceptibility range: N. gonorrhoeae (ATCC 49226) and three clinical isolates
Experimental: (§4) Antimicrobial susceptibility testing: Kirby-Bauer disc diffusion susceptibility tests were used to determine zones of inhibition (ZOIs) for N. gonorrhoeae (ATCC 49226) and three clinical isolates obtained from Louisiana State University Health Sciences Center New Orleans HIV Outpatient Clinic. Kirby-Bauer disc diffusion is one of the CDC's preferred methods of testing the susceptibility of N. gonorrhoeae. Testing was performed according to CLSI recommended procedures. In this susceptibility test, 6 mm diameter blank paper discs were impregnated with known quantities of antimicrobial drug followed by evaporation of solvent; however, ceftriaxone, azithromycin and doxycycline antimicrobial susceptibility discs were purchased from Thermo Fisher Scientific. Impregnated discs were placed onto prepared nutrient agar plates that were inoculated with N. gonorrhoeae to give a confluent lawn of growth. Suspensions of these various strains were prepared in accordance with a 1.0 McFarland standard. Inoculated agar plates were incubated for 20-24 h at 37° C. in a 5% CO2 atmosphere.
(§5) Blank discs were loaded with 50 nmol of GUMBOS, respective constituent compounds and equivalent stoichiometric unreacted mixtures of octenidine and carbenicillin that are equimolar to the purchased ceftriaxone discs (Oxoid™, Thermo Fisher). After 20-24 h incubation, diameters of ZOIs were measured using a ruler. […] Antibacterial activity was improved for octenidine when chloride ions were exchanged for the antibiotic. […] This effect was not seen, however, for an unreacted mixture of the two drugs for either N. gonorrhoeae (ATCC 49226) or clinical isolates. The ZOIs of octenidine/carbenicillin were also larger than or equal to azithromycin and doxycycline ZOIs for N. gonorrhoeae (ATCC 49226). […] This is significant as resistance rates for azithromycin have increased worldwide. Among 57 countries reporting on azithromycin susceptibility, 28 (49%) reported>5% resistance. […] Ceftriaxone produced large ZOIs as the clinical population still remains susceptible to it in the USA (only 0.2% of isolates had elevated resistance to ceftriaxone in 2017).

[7] = system: N. gonorrhoeae clinical isolates; assay: Kirby-Bauer disc diffusion against N. gonorrhoeae clinical isolates; format: cell-based, Neisseria gonorrhoeae; conditions: three clinical isolates, 20-24 h
Experimental: as §4, §5

[8] = system: HeLa cells; assay: MTT cytotoxicity assay of ceftriaxone-based GUMBOS; format: cell-based; conditions: for IC50: read-out: Acute cytotoxicity (IC50); for Relative cell toxicity (in words): comparison with mixture or parent antiseptic
Experimental: Cytotoxicity Assay of GUMBOS: Cytotoxicity of GUMBOS, unreacted mixtures, and antiseptics towards healthy cells were evaluated using the MTT assay, a colorimetric dye assay, according to manufacturer's instructions. […] Stock solutions of antimicrobial agents in cell medium (1% MeOH) were diluted to a known working concentration, doubly diluted, and transferred to seeded cells. […] Cells treated with only DMEM were used as a negative control. After incubation, 15 μL of MTT were added to each well and cells were further incubated for an hour. Sodium dodecyl sulfate dimethylformamide solution was added after this additional incubation time in order to dissolve the purple formazan crystals. Cell viability was quantified at 570 nm using a microplate spectrophotometer (Eppendorf PlateReader AF2200, Hauppauge, NY). Cell viability as a percentage was determined as the ratio between treated cells and untreated (control) cells taken as 100%.

[9] = Octanol-water partition coefficient (Log P), shake-flask method

Row | MIC [1] [µM] | MIC ([3]; CRE E. Coli (Isolate 2)) [µM] | MIC ([3]; CRE E. coli (Isolate 1)) [µM] | MIC [4] [µM] | MIC [5] [µM] | MIC [2] [µM] | SMILES | Zone size, mm (±SD) [6] [mm] | Zone size, mm (±SD) [7] [mm] | IC50 ([8]; 15 min) [µM] | IC50 ([8]; 60 min) [µM] | further results
1 |  |  |  |  |  |  | CC[C@H]1OC(=O)[C@H](C)[C@@H](O[C@H]2C[C@@](C)(OC)[C@@H](O)[C@H](C)O2)[C@H](C)[C@@H](O[C@@H]2O[C@H](C)C[C@H](N(C)C)[C@H]2O)[C@](C)(O)C[C@@H](C)CN(C)[C@H](C)[C@@H](O)[C@]1(C)O [Azithromycin, azithromycin] | 40 ± 1 | 36 ± 4 |  |  | MIC ([1]; Neisseria gonorrhoeae, ATCC49226): 0.8 µM (≈ 0.599 µg/mL); Concentration required for growth inhibition, fold greater than GUMBOS ([2]; N. gonorrhoeae clinical isolates): six to nine; MIC ([2]; Neisseria gonorrhoeae, read-out: MIC): 0.6 ± 0.2 µM (≈ 0.449 µg/mL); MIC ([3]; Escherichia coli, CRE E. Coli (Isolate 2)): 250 µM (≈ 187 µg/mL); MIC ([3]; Escherichia coli, CRE E. coli (Isolate 1)): > 500 µM; MIC ([4]; Klebsiella pneumoniae): 250 µM (≈ 187 µg/mL); MIC ([5]; Enterobacter cloacae): 250 µM (≈ 187 µg/mL); Zone sizes against CLSI susceptibility range [6]: within the susceptibility range set by CLSI
2 |  |  |  |  |  |  | CC1(C)S[C@@H]2[C@H](NC(=O)C(C(=O)[O-])c3ccccc3)C(=O)N2[C@H]1C(=O)[O-].[Na+].[Na+] (some centres unmarked) [Na2 CAR, disodium carbenicillin] | 27 ± 3 | 28 ± 3 |  |  | 
3 | 0.04 | >500 | >500 | >500 | >500 |  | CO/N=C(\C(=O)N[C@@H]1C(=O)N2C(C(=O)[O-])=C(CSc3nc(=O)c([O-])nn3C)CS[C@H]12)c1csc(N)n1.[Na+].[Na+] [Ceftriaxone, Ceftriaxone disodium salt] | 51 ± 1 | 49 ± 4 |  |  | Concentration as compared to GUMBOS ([1]; N. gonorrhoeae ATCC 49226): half-fold decrease; MIC ([2]; read-out: MIC): 0.02 µM; Zone sizes against CLSI susceptibility range [6]: within the susceptibility range set by CLSI
4 | 0.08 | 12.5 | 25 | 50 | 50 | 0.06 ± 0.02 | CON=C(C(=O)NC1C(=O)N2C(C(=O)O)=C(CSc3nc(=O)c(O)nn3C)CSC12)c1csc(N)n1.N=C(NCCCCCCNC(=N)NC(=N)Nc1ccc(Cl)cc1)NC(=N)Nc1ccc(Cl)cc1 (centres unmarked) [[CHX][CRO], chlorhexidine-ceftriaxone] |  |  | 84.3 ± 5.87 | 45.5 ± 1.42 | Relative cell toxicity (in words) [8]: only slightly less toxic; Relative cell toxicity (in words) ([8]; listed as Chlorhexidine-ceftriaxone): significantly less toxic than its unreacted, stoichiometric mixture; Log P [9]: 0.2 (±0.1)
5 | 3.1 |  |  |  |  | 4.7 ± 1.8 | CC(=O)O.CC(=O)O.NC(=N\CCCCCC/N=C(N)/N=C(\N)Nc1ccc(Cl)cc1)/N=C(\N)Nc1ccc(Cl)cc1 [Chlorhexidine diacetate, chlorhexidine diacetate] |  |  | 80.8 ± 4.27 | 24.6 ± 0.66 | 
6 |  |  |  |  |  |  | C[C@H]1c2cccc(O)c2C(=O)C2=C(O)[C@]3(O)C(=O)C(C(N)=O)=C(O)[C@@H](N(C)C)[C@@H]3[C@@H](O)[C@@H]21 [Doxycycline, doxycycline] | 35 ± 0.6 | 28 ± 7 |  |  | 

Row | SMILES | MIC [1] [µM] | MIC ([3]; CRE E. Coli (Isolate 2)) [µM] | MIC ([3]; CRE E. coli (Isolate 1)) [µM] | MIC [4] [µM] | MIC [5] [µM] | MIC [2] [µM] | Zone size, mm (±SD) [6] [mm] | Zone size, mm (±SD) [7] [mm] | IC50 ([8]; 15 min) [µM] | IC50 ([8]; 60 min) [µM] | further results
7 | CCCCCCCCNc1cc[n+](CCCCCCCCCC[n+]2ccc(NCCCCCCCC)cc2)cc1.CON=C(C(=O)NC1C(=O)N2C(C(=O)[O-])=C(CSc3nc(=O)c([O-])nn3C)CSC12)c1csc(N)n1 [[OCT][CRO], octenidine-ceftriaxone] | 0.08 | 25 | 50 | 25 | 25 | 0.09 ± 0.07 |  |  | 66.5 ± 8.24 | 43.3 ± 5.98 | Relative cell toxicity (in words) [8]: significantly less toxic than octenidine dihydrochloride; Relative cell toxicity (in words) ([8]; listed as octenidine-ceftriaxone): indifferent toxicity to its unreacted, stoichiometric mixture of parent compounds; Log P [9]: 0.3 (±0.2)
